What all share (type): cell-based
Assay [1] concerns human OA knee cartilage explants. As to the kind of experiment: GAG release in medium from cartilage explants. The note with it: n = 5 donors, 24 h, relative to control (Figure 6B). How it is done:
(§1) To determine whether peptide p[63−82] has the potency to alter chondrocyte behavior in cartilage tissue, rather than isolated HACs, cartilage biopsies from OA knees were cultured in the presence of peptide p[63−82], alongside its scrambled version and full-length BMP7.
Figure 6 Peptide p[63−82] activity on OA knee joint tissues Human OA knee joint tissues were cultured for 24 h in the presence of BMP7, peptide p[63−82], or the scrambled version of peptide p[63−82] and compared to control conditions. (A) Cartilage tissues (n = 7 individual donors) were exposed to shown conditions and analyzed for COL2A1, COL10A1, and COX-2 mRNA expression by quantitative real-time PCR (normalized for 28S rRNA expression and relative to control conditions). (B) GAG release in medium from cartilage tissues (n = 5 individual donors) was determined, and data were calculated relative to the control condition. (C) PGE2 levels in culture supernatant from synovium (n = 5 donors). (D) PGE2 levels in culture supernatant from cartilage tissues from (B) (n = 5 donors). (E) PGE2 levels in culture supernatant from IPFP (n = 5 donors). (F) PGE2 levels in culture supernatant from the meniscus. […] PGE2 levels in conditions were calculated relative to controls for each donor. […] Statistical differences (unpaired two-tailed Student’s t test) were calculated to control condition: ∗p < 0.05, ∗∗p < 0.01, and ∗∗∗p < 0.001. […]

For assay [2] the test system is unchanged. As to the kind of experiment: Gene expression in OA cartilage explants. The note with it: n = 7 donors, 24 h, normalized to 28S rRNA, relative to control; BMP7 1 nM (Figure 6A). How it is done: as §1
Figure 6 Peptide p[63−82] activity on OA knee joint tissues Human OA knee joint tissues were cultured for 24 h in the presence of BMP7, peptide p[63−82], or the scrambled version of peptide p[63−82] and compared to control conditions. (A) Cartilage tissues (n = 7 individual donors) were exposed to shown conditions and analyzed for COL2A1, COL10A1, and COX-2 mRNA expression by quantitative real-time PCR (normalized for 28S rRNA expression and relative to control conditions). (B) GAG release in medium from cartilage tissues (n = 5 individual donors) was determined, and data were calculated relative to the control condition. (C) PGE2 levels in culture supernatant from synovium (n = 5 donors). (D) PGE2 levels in culture supernatant from cartilage tissues from (B) (n = 5 donors). (E) PGE2 levels in culture supernatant from IPFP (n = 5 donors). (F) PGE2 levels in culture supernatant from the meniscus. Synovium, IPFP, and meniscus tissues were from the same 5 donors as the cartilage tissues in (B) and (C). PGE2 levels in conditions were calculated relative to controls for each donor. […] Statistical differences (unpaired two-tailed Student’s t test) were calculated to control condition: ∗p < 0.05, ∗∗p < 0.01, and ∗∗∗p < 0.001.
Cartilage was obtained from total knee arthroplasty of end-stage (K&L grades 3−4) OA patients and from resected knee cartilage from cartilage repair procedures of non-OA patients. […] The bioluminescent readout was performed by lysing cells in Passive Lysis Buffer (Promega) and measuring luciferase activity using the Berthold TriStar^2 LB 942 Modular Multimode Microplate Reader using the Luciferase Assay System for firefly luciferase (BRE and CAGA12) (Promega) and the Gaussia Luciferase Kit (New England Biolabs). […]

For assay [3], the system named is human OA meniscus explants. Description: PGE2 levels in culture supernatant of meniscus explants. The note with it: 24 h, relative to control (Figure 6F). How it is done:
Figure 6 Peptide p[63−82] activity on OA knee joint tissues Human OA knee joint tissues were cultured for 24 h in the presence of BMP7, peptide p[63−82], or the scrambled version of peptide p[63−82] and compared to control conditions. (A) Cartilage tissues (n = 7 individual donors) were exposed to shown conditions and analyzed for COL2A1, COL10A1, and COX-2 mRNA expression by quantitative real-time PCR (normalized for 28S rRNA expression and relative to control conditions). (B) GAG release in medium from cartilage tissues (n = 5 individual donors) was determined, and data were calculated relative to the control condition. (C) PGE2 levels in culture supernatant from synovium (n = 5 donors). (D) PGE2 levels in culture supernatant from cartilage tissues from (B) (n = 5 donors). (E) PGE2 levels in culture supernatant from IPFP (n = 5 donors). (F) PGE2 levels in culture supernatant from the meniscus. Synovium, IPFP, and meniscus tissues were from the same 5 donors as the cartilage tissues in (B) and (C). PGE2 levels in conditions were calculated relative to controls for each donor. In graphs, error bars represent mean ± SEM; data are presented relative to the control condition for each time point. Statistical differences (unpaired two-tailed Student’s t test) were calculated to control condition: ∗p < 0.05, ∗∗p < 0.01, and ∗∗∗p < 0.001. […]

“BMP7: full-length recombinant bone morphogenetic protein 7 (R&D Systems), used at 1 nM”: in assay [1], the “sGAG release from cartilage explants” value is listed as “no inhibitory effect”. The “COL2A1, COL10A1, and COX-2 mRNA expression in cartilage explants” value (“COL2A1, COL10A1” below) in assay [2] was “comparable”. Besides, the “PGE2 levels from meniscus explants” value in assay [3] is on record as “reduced”.
As for H-AAYYSEGESAFPLNSYMNAT-OH [p[63−82]], the “sGAG release from cartilage explants” value in assay [1] was “no inhibitory effect”. In addition, in assay [2], the “COL2A1, COL10A1” value is “induce COL2A1 while inhibiting COL10A1 and COX-2 expression”. Also, the “PGE2 levels from meniscus explants” value in assay [3] is listed as “reduced”.
For the substance “H-SEASPAMYYLNATANFYESG-OH [scrambled p[63−82], scrambled version of peptide p[63−82], reference compound]”, the “COL2A1, COL10A1” value in assay [2] is on record as “lacked this activity”.

The record behind these values is article PMC8022858, “Discovery of bone morphogenetic protein 7-derived peptide sequences that attenuate the human osteoarthritic chondrocyte phenotype” (Molecular Therapy. Methods & Clinical Development, 2021).
